Patent publication US4061737A, “Method for stimulating release of prolactin” (American Home Products Corporation, priority 1976, dated 1977)

Legend:
[1] = in vivo; cited from earlier work
[2] = system: guinea pig ileum; conditions: cited from earlier work
[3] = system: mouse vas deferens; conditions: cited from earlier work
[4] = system: Male Charles River CD rats; test: Prolactin plasma levels in rats 15 minutes after enkephalin injection (radioimmunoassay); format: in vivo, rat; conditions: for Change in prolactin levels upon injection (in words): 5 mg/kg., subcutaneous or intravenous
Experimental: Male Charles River CD rats were injected with the enkephalin (in saline) or saline alone either subcutaneously or intravenously via the femoral vein. Fifteen minutes later the animals were decapitated and blood collected (12 mg. versene and 6000 units of Trasylol added per tube). Each plasma sample was assayed for prolactin in quadruplicate by specific double antibody radioimmunoassays, using NIAMDD reagents and the procedure of Neill and Reichert, Endocrinology, 88, 548 (1971).

[5] = system: rat pituitary cells; test: Prolactin release in monolayer cultures of rat pituitary cells; format: cell-based; conditions: for Prolactin release versus control (in words): all levels from 5 ng/ml to 50 μg/ml; for Prolactin Release (mean ± SEM): 3 hours at 37° C., control 197 ± 13
Experimental: Monolayer cultures of enzymatically dispersed pituitary cells were prepared from male rats, using Eagle's minimal essential medium for growth. After incubation in triplicate dishes for 3 hours at 37° C. in 95% air: 5% CO2, the supernatant from each dish was assayed for prolactin in duplicate.

[6] = system: opiate receptor sites; conditions: cited from earlier work
[7] = Experiment 2, 5mg/kg. SC, 15 minutes after injection, control 40 ± 3

CN1CC[C@]23c4c5ccc(O)c4O[C@H]2[C@@H](O)C=C[C@H]3[C@H]1C5 [morphine, reference compound]
Prolactin levels (in words) [1]: can raise prolactin levels | Contractions of guinea pig ileum (in words) [2]: also elicited by morphine | Contractions of mouse vas deferens (in words) [3]: also elicited by morphine

CC(C)C[C@H](NC(=O)[C@H](Cc1ccccc1)NC(=O)CNC(=O)CNC(=O)[C@@H](N)Cc1ccc(O)cc1)C(=O)O [Leu-Enkephalin, H-Tyr-Gly-Gly-Phe-Leu-OH]
Contractions of guinea pig ileum (in words) [2]: inhibit | Contractions of mouse vas deferens (in words) [3]: inhibit | Change in prolactin levels upon injection (in words) [4]: more variable | Prolactin plasma level (mean ± SEM) ([4]; Experiment 1, 5mg/kg. SC, 15 minutes after injection, control 29 ± 3): 40 ± 6 ng/mL | Prolactin plasma level (mean ± SEM) [4, 7]: 40 ± 3 ng/mL | Prolactin plasma level (mean ± SEM) ([4]; Experiment 4, 5mg/kg. IV, 15 minutes after injection, control 43 ± 7): 29 ± 5 ng/mL | Prolactin plasma level (mean ± SEM) ([4]; Experiment 5, 5mg/kg. IV, 15 minutes after injection, control 31 ± 3): 55 ± 5 ng/mL | Prolactin plasma level (mean ± SEM) ([4]; Experiment 6, 5mg/kg. IV, 15 minutes after injection, control 47 ± 5): 59 ± 11 ng/mL | Prolactin plasma level (mean ± SEM) ([4]; Experiment 8, 5mg/kg. IV, 15 minutes after injection, control 63 ± 10): 61 ± 10 ng/mL | Prolactin release versus control (in words) [5]: significantly increased | Prolactin Release (mean ± SEM) ([5]; enkephalin 5 ng/ml): 247 ± 7 ng/mL | Prolactin Release (mean ± SEM) ([5]; enkephalin 50 ng/ml): 254 ± 14 ng/mL | Prolactin Release (mean ± SEM) ([5]; enkephalin 500 ng/ml): 253 ± 18 ng/mL | Prolactin Release (mean ± SEM) ([5]; enkephalin 5 μg/ml): 244 ± 10 ng/mL | Prolactin Release (mean ± SEM) ([5]; enkephalin 50 μg/ml): 260 ± 15 ng/mL | Stereospecific binding of 3H-naloxone to guinea pig brain (in words) [6]: inhibit

CSCC[C@H](NC(=O)[C@H](Cc1ccccc1)NC(=O)CNC(=O)CNC(=O)[C@@H](N)Cc1ccc(O)cc1)C(=O)O [Met-Enkephalin, H-Tyr-Gly-Gly-Phe-Met-OH]
Contractions of guinea pig ileum (in words) [2]: inhibit | Contractions of mouse vas deferens (in words) [3]: inhibit | Change in prolactin levels upon injection (in words) [4]: consistent, statistically significant increase | Prolactin plasma level (mean ± SEM) [4, 7]: 49 ± 3 ng/mL | Prolactin plasma level (mean ± SEM) ([4]; Experiment 3, 5mg/kg. IV, 15 minutes after injection, control 20 ± 1): 24 ± 1 ng/mL | Prolactin plasma level (mean ± SEM) ([4]; rat, in vivo): 43 ± 3 | Prolactin release versus control (in words) [5]: significantly increased | Prolactin release compared with leucine-enkephalin (in words) ([5]; difference statistically significant at 50 μg/ml and 500 ng/ml): greater release of prolactin than leucine-enkephalin | Prolactin Release (mean ± SEM) ([5]; enkephalin 5 ng/ml): 261 ± 15 ng/mL | Prolactin Release (mean ± SEM) ([5]; enkephalin 50 ng/ml): 257 ± 14 ng/mL | Prolactin Release (mean ± SEM) ([5]; enkephalin 500 ng/ml): 305 ± 14 ng/mL | Prolactin Release (mean ± SEM) ([5]; enkephalin 5 μg/ml): 255 ± 10 ng/mL | Prolactin Release (mean ± SEM) ([5]; enkephalin 50 μg/ml): 307 ± 8 ng/mL | Stereospecific binding of 3H-naloxone to guinea pig brain (in words) [6]: inhibit
